Source: US10251395B2, “Substituted furano-/thienocycloalkylamino-2-pyrimidine derivatives and use thereof for controlling undesired plant growth” (Bayer CropScience Aktiengesellschaft, priority 2015, dated 2019)

Legend:
[1] = system: Viola tricolor; assay: Pre-emergence herbicidal effect; assay type: in vivo; conditions: scored visually after 3 weeks
How it was run: (§1)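 Pre-em soil-surface spray; sandy loam, seeds covered with soil. WP/EC, aq. suspension/emulsion, 600–800 L/ha, +0.2% wetting agent. GH 3 wk; visual % activity vs untreated (100% = dead).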

[2] = system: Matricaria inodora; assay: Pre-emergence herbicidal effect; assay type: in vivo; conditions: scored visually after 3 weeks
How it was run: as §1

[3] = system: Veronica persica; assay: Pre-emergence herbicidal effect; assay type: in vivo; conditions: scored visually after 3 weeks
How it was run: as §1

[4] = system: Polygonum convolvulus; assay: Pre-emergence herbicidal effect; assay type: in vivo; conditions: scored visually after 3 weeks
How it was run: as §1

[5] = system: Echinochloa crus-galli; assay: Pre-emergence herbicidal effect; assay type: in vivo; conditions: scored visually after 3 weeks
How it was run: as §1

[6] = system: Lolium multiflorum; assay: Pre-emergence herbicidal effect; assay type: in vivo; conditions: Dosage 320 g/ha, scored visually after 3 weeks
How it was run: as §1

[7] = system: Stellaria media; assay: Pre-emergence herbicidal effect; assay type: in vivo; conditions: scored visually after 3 weeks
How it was run: as §1

[8] = system: Setaria viridis; assay: Pre-emergence herbicidal effect; assay type: in vivo; conditions: scored visually after 3 weeks
How it was run: as §1

[9] = system: Abutilon theophrasti; assay: Pre-emergence herbicidal effect; assay type: in vivo; conditions: Dosage 320 g/ha, scored visually after 3 weeks
How it was run: as §1

[10] = system: Alopecurus myosuroides; assay: Pre-emergence herbicidal effect; assay type: in vivo; conditions: scored visually after 3 weeks
How it was run: as §1

[11] = system: Avena fatua; assay: Pre-emergence herbicidal effect; assay type: in vivo; conditions: Dosage 320 g/ha, scored visually after 3 weeks
How it was run: as §1

[12] = system: Amaranthus retroflexus; assay: Pre-emergence herbicidal effect; assay type: in vivo; conditions: scored visually after 3 weeks
How it was run: as §1

[13] = logP (HCOOH); assay type: physicochemical; conditions: HCOOH
From the text: Table 2 (physicochemical characterization of selected synthesis examples)

[14] = system: Viola tricolor; assay: Post-emergence herbicidal effect; assay type: in vivo; conditions: assessed visually after about 3 weeks vs untreated controls
How it was run: (§2)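 Seedlings at the one-leaf stage, about 2 to 3 weeks old, are sprayed on their foliage with compound suspended or emulsified in water containing 0.2% wetting agent. After roughly 3 weeks in the greenhouse, injury is estimated visually on a 0 to 100% scale.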

[15] = system: Matricaria inodora; assay: Post-emergence herbicidal effect; assay type: in vivo; conditions: assessed visually after about 3 weeks vs untreated controls
How it was run: as §2

[16] = system: Polygonum convolvulus; assay: Post-emergence herbicidal effect; assay type: in vivo; conditions: assessed visually after about 3 weeks vs untreated controls
How it was run: as §2

[17] = system: Echinochloa crus-galli; assay: Post-emergence herbicidal effect; assay type: in vivo; conditions: assessed visually after about 3 weeks vs untreated controls
How it was run: as §2

[18] = system: Ipomoea purpurea; assay: Post-emergence herbicidal effect; assay type: in vivo; conditions: 320 g/ha, assessed visually after about 3 weeks vs untreated controls
How it was run: as §2

[19] = system: Lolium multiflorum; assay: Post-emergence herbicidal effect; assay type: in vivo; conditions: 320 g/ha, assessed visually after about 3 weeks vs untreated controls
How it was run: as §2

[20] = system: Stellaria media; assay: Post-emergence herbicidal effect; assay type: in vivo; conditions: assessed visually after about 3 weeks vs untreated controls
How it was run: as §2

[21] = system: Setaria viridis; assay: Post-emergence herbicidal effect; assay type: in vivo; conditions: assessed visually after about 3 weeks vs untreated controls
How it was run: as §2

[22] = system: Abutilon theophrasti; assay: Post-emergence herbicidal effect; assay type: in vivo; conditions: assessed visually after about 3 weeks vs untreated controls
How it was run: as §2

[23] = system: Alopecurus myosuroides; assay: Post-emergence herbicidal effect; assay type: in vivo; conditions: 320 g/ha, assessed visually after about 3 weeks vs untreated controls
How it was run: as §2

[24] = system: Avena fatua; assay: Post-emergence herbicidal effect; assay type: in vivo; conditions: 320 g/ha, assessed visually after about 3 weeks vs untreated controls
How it was run: as §2

[25] = system: Amaranthus retroflexus; assay: Post-emergence herbicidal effect; assay type: in vivo; conditions: assessed visually after about 3 weeks vs untreated controls
How it was run: as §2

## Nc1nc(NC2CCc3sc(Cl)cc32)ncc1C(F)(F)F (racemic) [compound 256]
[1]; Dosage 80 g/ha
  VIOTR pre-emergence efficacy (herbicidal activity): 100%
[1]; Dosage 320 g/ha
  VIOTR pre-emergence efficacy (herbicidal activity): 100%
[2]; Dosage 80 g/ha
  MATIN pre-emergence efficacy (herbicidal activity): 100%
[2]; Dosage 320 g/ha
  MATIN pre-emergence efficacy (herbicidal activity): 100%
[3]; Dosage 80 g/ha
  VERPE pre-emergence efficacy (herbicidal activity): 100%
[3]; Dosage 320 g/ha
  VERPE pre-emergence efficacy (herbicidal activity): 100%
[4]; Dosage 80 g/ha
  POLCO pre-emergence efficacy (herbicidal activity): 100%
[4]; Dosage 320 g/ha
  POLCO pre-emergence efficacy (herbicidal activity): 100%
[5]; Dosage 80 g/ha
  ECHCG pre-emergence efficacy (herbicidal activity): 100%
[5]; Dosage 320 g/ha
  ECHCG pre-emergence efficacy (herbicidal activity): 100%
[6]
  LOLMU pre-emergence efficacy (herbicidal activity): 100%
[7]; Dosage 80 g/ha
  STEME pre-emergence efficacy (herbicidal activity): 100%
[7]; Dosage 320 g/ha
  STEME pre-emergence efficacy (herbicidal activity): 100%
[8]; Dosage 80 g/ha
  SETVI pre-emergence efficacy (herbicidal activity): 100%
[8]; Dosage 320 g/ha
  SETVI pre-emergence efficacy (herbicidal activity): 100%
[9]
  ABUTH pre-emergence efficacy (herbicidal activity): 100%
[10]; Dosage 80 g/ha
  ALOMY pre-emergence efficacy (herbicidal activity): 60%
[10]; Dosage 320 g/ha
  ALOMY pre-emergence efficacy (herbicidal activity): 100%
[11]
  AVEFA pre-emergence efficacy (herbicidal activity): 100%
[12]; Dosage 80 g/ha
  AMARE pre-emergence efficacy (herbicidal activity): 100%
[12]; Dosage 320 g/ha
  AMARE pre-emergence efficacy (herbicidal activity): 100%
[13]
  logP (HCOOH): solid; logP (HCOOH): 2.30; 1H NMR (CDCl3, 400 MHZ, δ in ppm): 2.15 (m, 1H, 1H
[14]; 80 g/ha
  post-emergence efficacy VIOTR: 90%
[14]; 320 g/ha
  post-emergence efficacy VIOTR: 90%
[15]; 80 g/ha
  post-emergence efficacy MATIN: 100%
[15]; 320 g/ha
  post-emergence efficacy MATIN: 100%
[16]; 80 g/ha
  post-emergence efficacy POLCO: 90%
[16]; 320 g/ha
  post-emergence efficacy POLCO: 90%
[17]; 80 g/ha
  post-emergence efficacy ECHCG: 100%
[17]; 320 g/ha
  post-emergence efficacy ECHCG: 100%
[18]
  post-emergence efficacy PHBPU: 100%
[19]
  post-emergence efficacy LOLMU: 70%
[20]; 80 g/ha
  post-emergence efficacy STEME: 100%
[20]; 320 g/ha
  post-emergence efficacy STEME: 100%
[21]; 80 g/ha
  post-emergence efficacy SETVI: 90%
[21]; 320 g/ha
  post-emergence efficacy SETVI: 90%
[22]; 80 g/ha
  post-emergence efficacy ABUTH: 90%
[22]; 320 g/ha
  post-emergence efficacy ABUTH: 90%
[23]
  post-emergence efficacy ALOMY: 90%
[24]
  post-emergence efficacy AVEFA: 70%
[25]; 80 g/ha
  post-emergence efficacy AMARE: 100%
[25]; 320 g/ha
  post-emergence efficacy AMARE: 100%
